Measured values: paper PMC11855827, “High-Throughput Screening of Five Compound Libraries for Anthelmintic Activity and Toxicity Leads to the Discovery of Two Flavonoid Compounds” (International Journal of Molecular Sciences, 2025)
Where “and” joins values, the source holds several entries; their conditions need not be identical. Equal entries are not always repeated.

System: C. elegans
Conditions: Table S2, C. elegans SS assay, 110 μM, averages of 4 data points

Row | Compound | Percentage of motility inhibition 0 h | Percentage of motility inhibition 24 h
1 | CC(=O)Oc1c(C)c(C)c2c(c1C)CCC(C)(CCC[C@H](C)CCC[C@H](C)CCCC(C)C)O2 (stereo partly drawn) [D-α-Tocopherol acetate] | 7% | 22%
2 | CCN(CC)C(=O)c1cccc(C)c1 [DEET] | 59% | 25%
3 | COc1ccc(CC2c3cc(OC)c(OC)cc3CCN2C)cc1OC (stereo not drawn) [DL‐Laudanosine] | 7% | 12%
4 | COC(=O)N[C@H](C(=O)N1CCC[C@H]1c1ncc(-c2ccc(-c3ccc(-c4cnc([C@@H]5CCCN5C(=O)[C@@H](NC(=O)OC)C(C)C)[nH]4)cc3)cc2)[nH]1)C(C)C.Cl.Cl [Daclatasvir (dihydrochloride)] | 39% | 2%
5 | O=c1c(-c2ccc(O)cc2)coc2cc(O[C@@H]3O[C@H](CO)[C@@H](O)[C@H](O)[C@H]3O)ccc12 [Daidzin] | 47% and 26% | –
6 | CC(C)=CC/C=C(\C)[C@H]1CC[C@]2(C)[C@@H]1[C@H](O)C[C@@H]1[C@@]3(C)C[C@@H](O)[C@H](O[C@@H]4O[C@H](CO)[C@@H](O)[C@H](O)[C@H]4O[C@@H]4O[C@H](CO)[C@@H](O)[C@H](O)[C@H]4O)C(C)(C)[C@@H]3CC[C@]12C [Damulin A] | 5% | 0%
7 | CN1C[C@@H]2C[C@H]1CN2c1cc2c(cc1F)c(=O)c(C(=O)O)cn2C1CC1.CS(=O)(=O)O [Danofloxacin (mesylate)] | 0% | 15%
8 | CC(C)CN(C[C@@H](O)[C@H](Cc1ccccc1)NC(=O)O[C@H]1CO[C@H]2OCC[C@H]21)S(=O)(=O)c1ccc(N)cc1.CCO [Darunavir (Ethanolate)] | 14% | 10%
9 | COc1cc2c(cc1O)[C@@H](Cc1ccc(O)c(Oc3ccc(C[C@@H]4c5cc(OC)c(OC)cc5CCN4C)cc3)c1)N(C)CC2 [Daurisoline] | 23% | 12%
10 | O=C(O)C1=CO[C@@H](O[C@@H]2O[C@H](CO)[C@@H](O)[C@H](O)[C@H]2O)[C@@H]2C(CO)=C[C@H](O)[C@H]12 [Deacetylasperulosidic Acid] | 0% | 8%
11 | C[C@@H]1O[C@@H](O[C@H]2[C@H](OC(=O)[C@]34CCC(C)(C)C[C@H]3C3=CC[C@@H]5[C@@]6(C)C[C@H](O)[C@H](O[C@@H]7O[C@H](CO)[C@@H](O)[C@H](O)[C@H]7O)C(CO)(CO)[C@@H]6CC[C@@]5(C)[C@]3(C)C[C@H]4O)OC[C@H](O)[C@@H]2O)[C@H](O)[C@H](O)[C@H]1O[C@@H]1OC[C@@H](O)[C@H](O)[C@H]1O [Deapioplatycodin D] | 12% | 0%
12 | C=C1CC[C@@H]2[C@](C)(COC(=O)CCC(=O)O)[C@H](OC(=O)CCC(=O)O)CC[C@@]2(C)[C@@H]1/C=C/C1=CCOC1=O [Dehydroandrographolide succinate] | 7% and 0% | –
13 | C=C1CC[C@@H]2[C@](C)(CO)[C@H](O)CC[C@@]2(C)[C@@H]1/C=C/C1=CCOC1=O [Dehydroandrographolide] | 0% and 4% | 7% and 9%
14 | COc1cc2c(cc1OC)-c1c(C)c3ccc(OC)c(OC)c3c[n+]1CC2.[Cl-] [Dehydrocorydaline (chloride)] | 0% | 0%
15 | COc1cc2c(cc1OC)-c1c(C)c3ccc(OC)c(OC)c3c[n+]1CC2.[OH-] [Dehydrocorydaline (hydroxyl)] | 2% | 0%
16 | COc1cc2c(cc1OC)-c1c(C)c3ccc(OC)c(OC)c3c[n+]1CC2.O=[N+]([O-])[O-] [Dehydrocorydaline (nitrate)] | 5% | 0%
17 | C=C(CC[C@@H](C(=O)O)[C@H]1CC[C@@]2(C)C3=CC[C@H]4C(C)(C)[C@@H](OC(C)=O)CC[C@]4(C)C3=CC[C@]12C)C(C)C [Dehydroeburicoic acid monoacetate] | 20% | 24%
18 | CN1C2=C3N=c4ccccc4=C3CCN2C(=O)c2ccccc21.Cl [Dehydroevodiamine (hydrochloride)] | 8% | 1%
19 | C=C(CCC(C(=O)O)[C@H]1[C@H](O)C[C@@]2(C)C3=CC[C@H]4C(C)(C)[C@@H](OC(C)=O)CC[C@]4(C)C3=CC[C@]12C)C(C)C (some centres unmarked) [Dehydropachymic acid] | 29% | 35%

Row | Compound | Percentage of motility inhibition 0 h | Percentage of motility inhibition 24 h
20 | CC(C)Nc1cccnc1N1CCN(C(=O)c2cc3cc(NS(C)(=O)=O)ccc3[nH]2)CC1.CS(=O)(=O)O [Delavirdine (mesylate)] | 22% | 16%
21 | CN1CCN(c2ccc(N3C[C@H](CO)OC3=O)cc2F)C=N1 [Delpazolid] | 2% | 3%
22 | CN(C)[C@@H]1C(O)=C(C(N)=O)C(=O)[C@@]2(O)C(O)=C3C(=O)c4c(O)ccc(Cl)c4[C@@H](O)[C@H]3C[C@@H]12.Cl [Demeclocycline (hydrochloride)] | 17% | 12%
23 | C/C(=C\C=C\[C@@]1(C)OC(=O)[C@]23CC=C(C(=O)O)CC[C@]2(O)[C@H]1CC3)C(=O)O [Demethoxydeacetoxypseudolaric acid B] | 0% | 0%
24 | COc1ccc2cc3[n+](cc2c1OC)CCc1cc(O)c(O)cc1-3.[Cl-] [Demethyleneberberine (chloride)] | 0% | 13%
25 | C[C@@]1(C(=O)O)CC[C@]2(C)CC[C@]3(C)C4=CC(=O)c5c(cc(O)c(O)c5C=O)[C@]4(C)CC[C@@]3(C)[C@@H]2C1 [Demethylzeylasteral] | 0% | 36%
26 | CC(C)[C@@H]1[C@H]2OC(=O)[C@@H]1[C@@H]1CC[C@@H]3CN(C)[C@H]2[C@@]31C [Dendrobine] | 0% | 3%
27 | C[C@H](CCC(=O)[O-])[C@H]1CC[C@H]2[C@@H]3CC[C@@H]4C[C@H](O)CC[C@]4(C)[C@H]3C[C@H](O)[C@]12C.[Na+] [Deoxycholic acid sodium salt] | 0% | 26%
28 | C=C(C)C(=O)O[C@H]1CC2=C[C@@H](C/C(C)=C/[C@H]3OC(=O)C(=C)[C@H]13)OC2=O [Deoxyelephantopin] | 0% | 9%
29 | CC1(C)OC2CC(=O)OCC23C1CC(=O)C1(C)C2=CC(=O)OC(c4ccoc4)C2(C)CCC13 (centres unmarked) [Deoxylimonin] | 9% | 50%
30 | CC1(C)[C@@H](O[C@H]2O[C@H](C(=O)O)[C@@H](O)[C@H](O)[C@H]2O[C@@H]2O[C@H](C(=O)O)[C@@H](O)[C@H](O)[C@H]2O)CC[C@]2(C)[C@H]3C(=O)C=C4[C@@H]5C[C@@](C)(C(=O)O)CC[C@]5(C)CC[C@@]4(C)[C@]3(C)CC[C@@H]12.N.N [Diammonium Glycyrrhizinate] | – | 4% and 11%
31 | COc1cc(-c2coc3cc4c(c(O)c3c2=O)OCO4)cc(O)c1OC [Dichotomitin] | 34% | 22%
32 | COc1ccc([C@@H]2CC(=O)c3c(O)cc(O[C@@H]4O[C@H](CO[C@@H]5O[C@@H](C)[C@H](O)[C@@H](O)[C@H]5O)[C@@H](O)[C@H](O)[C@H]4O)cc3O2)cc1 [Didymin] | 1% | 6%
33 | CCN(CC)C(=O)N1CCN(C)CC1.O=C(O)CC(O)(CC(=O)O)C(=O)O [Diethylcarbamazine (citrate)] | 13% | 17%
34 | CC1=C[C@H]2[C@@H](CC1)[C@H](C)CC[C@H]2[C@@H](C)C(=O)O [Dihydroartemisinic acid] | 0% | 15%
35 | CC(=O)OC(C)(C)CCC(=O)[C@](C)(O)[C@H]1[C@H](O)C[C@@]2(C)[C@@H]3CC=C4[C@@H](C[C@H](O)C(=O)C4(C)C)[C@]3(C)C(=O)C[C@]12C [Dihydrocucurbitacin B] | 0% | 11%
36 | CCCCCCCCCCCCCc1cc(=O)c2ccccc2n1C [Dihydroevocarpine] | 3% | 0%
37 | O[C@H]1[C@H]2c3cc4c(cc3CN3CC[C@H](C[C@@H]1O)[C@H]23)OCO4 [Dihydrolycorine] | 0% | 0%
